Reference: ChEMBL document CHEMBL1201862, “PubChem BioAssay data set” (2004)
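Interpolation was linear, between the two tested concentrations surrounding the appropriate level; five concentrations were tested over 48 hours in 96-well plates. GI50: concentration for 50% inhibition of growth.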 Activity calls are given as the source filed them. Rule as the data show it: active = GI50 up to about 1.1 µM and inactive = higher.

Tests used:
Assay in all cases: DTP human tumour cell line panel, 48 h
SK-OV-3 = tested on: SK-OV-3
KM12 = tested on: KM12
SNB-75 = tested on: SNB-75
NCI-H522 = tested on: NCI-H522
SF-295 = tested on: SF-295
OVCAR-3 = tested on: OVCAR-3
OVCAR-5 = tested on: OVCAR-5
SK-MEL-5 = tested on: SK-MEL-5
SN12C = tested on: SN12C
HL-60 = tested on: HL-60
CCRF-CEM = tested on: CCRF-CEM
SF-539 = tested on: SF-539
NCI-H226 = tested on: NCI-H226
HCT-15 = tested on: HCT-15
OVCAR-4 = tested on: OVCAR-4
UACC-257 = tested on: UACC-257
HCC 2998 = tested on: HCC 2998
RXF 393 = tested on: RXF 393

Structure (SMILES)	GI50 (SK-OV-3)	GI50 (KM12)	GI50 (SNB-75)	GI50 (NCI-H522)	GI50 (SF-295)	GI50 (OVCAR-3)	GI50 (OVCAR-5)	GI50 (SK-MEL-5)	GI50 (SN12C)	GI50 (HL-60)	GI50 (CCRF-CEM)	GI50 (SF-539)	GI50 (NCI-H226)	GI50 (HCT-15) [µM]	GI50 (OVCAR-4)	GI50 (UACC-257)	GI50 (HCC 2998)	GI50 (RXF 393)
C[n+]1cn(CC(=O)c2ccccc2)c(C(N)=O)c1N	> 100 µM (inactive)	> 100 µM (inactive)	> 100 µM (inactive)	77.6 µM (inactive)	> 100 µM (inactive)	> 100 µM (inactive)	> 100 µM (inactive)	33 µM (inactive)	> 100 µM (inactive)	0.337 µM (active)	> 100 µM (inactive)	> 100 µM (inactive)	> 100 µM (inactive)	80.7	> 100 µM (inactive)	> 100 µM (inactive)	> 100 µM (inactive)	
O/N=C1\C(=C\c2ccc3c(c2)OCCO3)CCCC1C(NO)c1ccc2c(c1)OCCO2 (centres undefined)	49.9 µM (inactive)	21.4 µM (inactive)	28.7 µM (inactive)	13.8 µM (inactive)	31 µM (inactive)	18.3 µM (inactive)	32.6 µM (inactive)	16.4 µM (inactive)	14 µM (inactive)	14.7 µM (inactive)	16.6 µM (inactive)	13.4 µM (inactive)		22.5	30.1 µM (inactive)	20.4 µM (inactive)	22.6 µM (inactive)	25.8 µM (inactive)
O=c1[nH]c(=O)n(C2CC(O)C(CO)O2)cc1C#Cc1c(F)c(F)c(F)c(F)c1F (centres undefined)	> 100 µM (inactive)	> 100 µM (inactive)	> 100 µM (inactive)	> 10 µM (inactive)	> 100 µM (inactive)	> 100 µM (inactive)	> 100 µM (inactive)	> 100 µM (inactive)	> 100 µM (inactive)		> 100 µM (inactive)	> 100 µM (inactive)	> 100 µM (inactive)	> 100	> 100 µM (inactive)	> 100 µM (inactive)	> 100 µM (inactive)	
COc1nc2c(OC)cccc2c(OC)c1C=O	> 100 µM (inactive)	75.5 µM (inactive)	30.8 µM (inactive)	> 100 µM (inactive)	> 100 µM (inactive)	> 100 µM (inactive)		> 100 µM (inactive)	> 100 µM (inactive)	> 100 µM (inactive)	> 100 µM (inactive)	> 100 µM (inactive)	> 100 µM (inactive)	> 100		> 100 µM (inactive)		> 100 µM (inactive)
CN(C)C=C1C(Cl)=C(C=O)CC(C=O)=C1Cl	29.4 µM (inactive)	6.46 µM (inactive)	15.4 µM (inactive)	1.86 µM (inactive)	18.3 µM (inactive)	13.5 µM (inactive)	15.9 µM (inactive)	10.4 µM (inactive)	> 100 µM (inactive)	1.77 µM (inactive)	2.5 µM (inactive)	14.8 µM (inactive)		3.42	14.4 µM (inactive)	14.9 µM (inactive)	15.2 µM (inactive)	6.21 µM (inactive)
O=C(O)Cc1ccc2c(c1O)C(=O)c1c(ccc(CC(=O)O)c1O)C2=O	> 100 µM (inactive)	> 100 µM (inactive)	> 100 µM (inactive)	> 100 µM (inactive)	> 100 µM (inactive)	> 100 µM (inactive)	> 100 µM (inactive)	> 100 µM (inactive)	> 100 µM (inactive)	> 100 µM (inactive)	> 100 µM (inactive)	> 100 µM (inactive)	> 100 µM (inactive)	> 100	> 100 µM (inactive)	> 100 µM (inactive)	> 100 µM (inactive)	
CCN(CC)c1ccc(/N=N/c2ccc(-c3nc4cccnc4o3)cc2)cc1		> 100 µM (inactive)	> 100 µM (inactive)	66.4 µM (inactive)	> 100 µM (inactive)	> 100 µM (inactive)	> 100 µM (inactive)	> 100 µM (inactive)	> 100 µM (inactive)	> 100 µM (inactive)	> 100 µM (inactive)	> 100 µM (inactive)	> 100 µM (inactive)	> 100	> 100 µM (inactive)	> 100 µM (inactive)	55.2 µM (inactive)	> 100 µM (inactive)
COC(=O)/C(=N/O)C(C(=O)C=C(C)C)C(=O)C(=O)Nc1nc2ccc([N+](=O)[O-])cc2s1 (centres undefined)	24.8 µM (inactive)	47.2 µM (inactive)		32.1 µM (inactive)	36.8 µM (inactive)	21.5 µM (inactive)	37.7 µM (inactive)	43.8 µM (inactive)	32.2 µM (inactive)	38.2 µM (inactive)	24.7 µM (inactive)	23.2 µM (inactive)	23.6 µM (inactive)	30.7	31.8 µM (inactive)	44.6 µM (inactive)	35.6 µM (inactive)	
Cc1cc(NS(=O)(=O)c2ccc(Nc3c4ccccc4nc4c(C(=O)Nc5ccc(S(=O)(=O)N=C(N)N)cc5)cccc34)cc2)no1	> 100 µM (inactive)	> 100 µM (inactive)	> 100 µM (inactive)	> 100 µM (inactive)	> 100 µM (inactive)	> 100 µM (inactive)	> 100 µM (inactive)	> 100 µM (inactive)	> 100 µM (inactive)		> 100 µM (inactive)	> 100 µM (inactive)		> 100	> 100 µM (inactive)	> 100 µM (inactive)	> 100 µM (inactive)	> 100 µM (inactive)
Cc1c(OCCCOc2ccc3c(=O)cc(-c4ccccc4)oc3c2C)ccc2c(=O)cc(-c3ccccc3)oc12	> 100 µM (inactive)	> 100 µM (inactive)		> 100 µM (inactive)	> 100 µM (inactive)	> 100 µM (inactive)	> 100 µM (inactive)	> 100 µM (inactive)		41.4 µM (inactive)	68.7 µM (inactive)	> 100 µM (inactive)		> 100		> 100 µM (inactive)		74 µM (inactive)
OCC1CC2CC1C1(C2)OCCO1 (centres undefined)	> 100 µM (inactive)	> 100 µM (inactive)	> 100 µM (inactive)	> 100 µM (inactive)	> 100 µM (inactive)	> 100 µM (inactive)	> 100 µM (inactive)	> 100 µM (inactive)	> 100 µM (inactive)	> 100 µM (inactive)	> 100 µM (inactive)	> 100 µM (inactive)	> 100 µM (inactive)		> 100 µM (inactive)	> 100 µM (inactive)		> 100 µM (inactive)
O=C1Nc2cccc3ncn(c23)C2=C1CCCC2	96.2 µM (inactive)	> 100 µM (inactive)		> 100 µM (inactive)	> 100 µM (inactive)		> 100 µM (inactive)	> 100 µM (inactive)	> 100 µM (inactive)	> 100 µM (inactive)	> 100 µM (inactive)	> 100 µM (inactive)		> 100		> 100 µM (inactive)	> 100 µM (inactive)	> 100 µM (inactive)
CCC1(Br)C(=O)NC(=O)N(C2CC(O)C(CO)O2)C1N=[N+]=[N-] (centres undefined)	> 100 µM (inactive)		> 100 µM (inactive)	94.4 µM (inactive)	> 100 µM (inactive)	> 100 µM (inactive)	> 100 µM (inactive)	> 100 µM (inactive)	> 100 µM (inactive)	> 100 µM (inactive)	44 µM (inactive)	> 100 µM (inactive)			> 100 µM (inactive)	83.6 µM (inactive)	> 100 µM (inactive)	66.7 µM (inactive)
CC[P+]1(CC)CCCC1	> 100 µM (inactive)	> 100 µM (inactive)	> 100 µM (inactive)		> 100 µM (inactive)	> 100 µM (inactive)	> 100 µM (inactive)	> 100 µM (inactive)	> 100 µM (inactive)		> 100 µM (inactive)	> 100 µM (inactive)		> 100	> 100 µM (inactive)	> 100 µM (inactive)	> 100 µM (inactive)	> 100 µM (inactive)
NC(=O)C(=Cc1ccc(C(O)P(=O)(O)O)cc1)C(N)=O (centres undefined)	> 100 µM (inactive)	> 100 µM (inactive)	> 100 µM (inactive)	> 100 µM (inactive)	> 100 µM (inactive)	> 100 µM (inactive)	> 100 µM (inactive)	> 100 µM (inactive)	> 100 µM (inactive)			> 100 µM (inactive)		> 100	> 100 µM (inactive)	> 100 µM (inactive)	> 100 µM (inactive)	> 100 µM (inactive)
CCC1(CN(C)C)CC/C(=C\c2ccc(OC)cc2)C1=O (centres undefined)		> 100 µM (inactive)	> 100 µM (inactive)	31.5 µM (inactive)	> 100 µM (inactive)	> 100 µM (inactive)	> 100 µM (inactive)	58.6 µM (inactive)	> 100 µM (inactive)		30 µM (inactive)	> 100 µM (inactive)	> 100 µM (inactive)	23.5	> 100 µM (inactive)	89.3 µM (inactive)	> 100 µM (inactive)	> 100 µM (inactive)
C[C@@H](C1CCC2C3C(=CC(=O)[C@@]21C)[C@H](C)[C@]1(CCC(=O)O1)C1OC31)[C@H]1C[C@]2(C)O[C@@](C)(O1)OC2(C)C (some centres undefined)	> 100 µM (inactive)			> 100 µM (inactive)	> 100 µM (inactive)			> 100 µM (inactive)	> 100 µM (inactive)	> 100 µM (inactive)	> 100 µM (inactive)	> 100 µM (inactive)		> 100				> 100 µM (inactive)
C/N=C(\S)N/N=C/C(C)=N/N/C(S)=N/C	> 100 µM (inactive)	> 100 µM (inactive)		> 100 µM (inactive)	> 100 µM (inactive)	> 100 µM (inactive)	0.843 µM (active)	> 100 µM (inactive)	> 100 µM (inactive)			> 100 µM (inactive)		> 100			> 100 µM (inactive)	> 100 µM (inactive)
